What was measured:
Details in all cases: 72 h
Calu-3 [1] = assay: relative viability EC50 (midpoint between 100% and the lowest measured viability); higher = less toxic
HepG2 [2] = assay: as above
U2OS [3] = assay: as above
Vero E6 [4] = assay: as above
Caco-2 [5] = assay: as above
Calu-3 [6] = assay: drug sensitivity score (DSS) for viability; higher = more toxic; extreme values may be limits of the assay
HepG2 [7] = assay: as above
U2OS [8] = assay: as above
Vero E6 [9] = assay: as above
Caco-2 [10] = assay: as above
Calu-3 [11] = assay: cell viability relative to DMSO; higher = less toxic
HepG2 [12] = assay: as above
U2OS [13] = assay: as above
Vero E6 [14] = assay: as above
Caco-2 [15] = assay: as above

Row | Compound | relative viability EC50 (Calu-3 [1]) | relative viability EC50 (HepG2 [2]) | relative viability EC50 (U2OS [3]) | relative viability EC50 (Vero E6 [4]) | relative viability EC50 (Caco-2 [5]) | drug sensitivity score (Calu-3 [6]) | drug sensitivity score (HepG2 [7]) | drug sensitivity score (U2OS [8]) | drug sensitivity score (Vero E6 [9]) | drug sensitivity score (Caco-2 [10]) | cell viability (Calu-3 [11]; 1 nM) | cell viability (Calu-3 [11]; 10 nM) | cell viability (Calu-3 [11]; 100 nM) | cell viability (Calu-3 [11]; 1000 nM) | cell viability (Calu-3 [11]; 10000 nM) | cell viability (HepG2 [12]; 1 nM) | cell viability (HepG2 [12]; 10 nM) | cell viability (HepG2 [12]; 100 nM) | cell viability (HepG2 [12]; 1000 nM) | cell viability (HepG2 [12]; 10000 nM) | cell viability (U2OS [13]; 1 nM) | cell viability (U2OS [13]; 10 nM) | cell viability (U2OS [13]; 100 nM) | cell viability (U2OS [13]; 1000 nM) | cell viability (U2OS [13]; 10000 nM) | cell viability (Vero E6 [14]; 1 nM) | cell viability (Vero E6 [14]; 10 nM) | cell viability (Vero E6 [14]; 100 nM) | cell viability (Vero E6 [14]; 1000 nM) | cell viability (Vero E6 [14]; 10000 nM) | cell viability (Caco-2 [15]; 1 nM) | cell viability (Caco-2 [15]; 10 nM) | cell viability (Caco-2 [15]; 100 nM) | cell viability (Caco-2 [15]; 1000 nM) | cell viability (Caco-2 [15]; 10000 nM)
1 | Oc1ccc2c3c1O[C@H]1c4oc5ccccc5c4C[C@@]4(O)[C@@H](C2)N(CC2CC2)CC[C@]314 [naltriben] | > 10 µM | > 10 µM | > 10 µM | > 10 µM | > 10 µM | 0 | 0 | 0 | 0 | 0.3 | 105% | 85.1% | 105% | 87.7% | 99.5% | 102% | 120% | 93.5% | 99.7% | 99% | 101% | 101% | 100% | 101% | 99.8% | 90.9% | 101% | 93.3% | 96.4% | 108% | 91.7% | 91.9% | 102% | 98.6% | 86.5%
2 | CC(C)[C@H](NS(=O)(=O)c1ccc(-c2ccc(Br)cc2)cc1)C(=O)O | > 10 µM | > 10 µM | > 10 µM | > 10 µM | > 10 µM | 0 | 0 | 0 | 0 | 0 | 106% | 102% | 91.4% | 104% | 92.9% | 98.3% | 109% | 87.8% | 110% | 110% | 101% | 97.5% | 99.5% | 96.4% | 102% | 93.2% | 95.9% | 87.7% | 92.2% | 102% | 96.3% | 86.2% | 93.5% | 92.6% | 89.8%
3 | C=CC(=O)Nc1cc(Nc2nccc(-c3cn(C)c4ccccc34)n2)c(OC)cc1N(C)CCN(C)C [osimertinib] | 0.374 µM | 1.8 µM | 1.86 µM | 1.19 µM | 1.44 µM | 15.8 | 8.1 | 8 | 10.4 | 8.8 | 92.6% | 92.9% | 72.2% | 36.7% | 0.7% | 99.6% | 98.8% | 104% | 82.4% | 6% | 95.7% | 99.2% | 92.3% | 83.6% | 5% | 95.9% | 93.8% | 90.4% | 57.7% | 0% | 82.7% | 97.2% | 94.2% | 72.6% | 9.1%
4 | CN(C(=O)c1ccc(F)cc1C(F)(F)F)C1CCN(c2nnc(-c3ccnn3C)c3ccccc23)CC1 [taladegib] | > 10 µM | > 10 µM | > 10 µM | > 10 µM | > 10 µM | 0 | 0 | 0 | 0 | 0 | 93.1% | 93.7% | 92.8% | 109% | 99.4% | 120% | 113% | 111% | 93.5% | 93.2% | 94.9% | 101% | 93% | 101% | 95.6% | 106% | 99.5% | 102% | 90.9% | 91.4% | 96.9% | 92.2% | 87.7% | 106% | 92.8%
5 | Cc1cc(C(=O)CN2CCCC2)c(C)n1-c1ccc(F)cc1 [IU1] | > 10 µM | > 10 µM | > 10 µM | > 10 µM | > 10 µM | 0 | 0 | 0 | 0 | 0 | 112% | 99.9% | 102% | 109% | 104% | 95.7% | 100% | 101% | 102% | 103% | 92.3% | 98.8% | 95.5% | 96.2% | 109% | 99.2% | 97.8% | 98.4% | 94.6% | 105% | 103% | 105% | 101% | 108% | 99.1%
6 | CN[C@@H](C)CC1CCCCC1 [propylhexedrine] | > 10 µM | > 10 µM | > 10 µM | > 10 µM | > 10 µM | 0 | 0 | 0 | 0 | 0 | 97.4% | 104% | 104% | 90.2% | 97.9% | 102% | 101% | 99.3% | 97.8% | 94.1% | 104% | 99.6% | 100% | 99.2% | 100% | 99.2% | 110% | 106% | 104% | 95.7% | 88% | 111% | 86% | 79.4% | 102%
7 | C[C@H](Cc1cc2c(c(C(N)=O)c1)N(CCCO)CC2)NCCOc1ccccc1OCC(F)(F)F [silodosin] | > 10 µM | > 10 µM | > 10 µM | > 10 µM | > 10 µM | 0 | 0 | 0 | 0 | 0 | 96% | 87.2% | 97% | 101% | 93.6% | 95% | 97.7% | 103% | 102% | 99.9% | 101% | 93.5% | 98.9% | 95.6% | 97.6% | 93.9% | 102% | 97.1% | 101% | 108% | 91.6% | 93.1% | 106% | 92% | 88.7%
8 | Cc1c(C)c2c(c(C)c1O)CCC(C)(C(=O)O)O2 (stereo not given) [trolox] | > 10 µM | > 10 µM | > 10 µM | > 10 µM | > 10 µM | 0 | 0 | 0 | 1.3 | 0.8 | 105% | 105% | 98.1% | 106% | 104% | 96.8% | 90.2% | 92.6% | 87.6% | 98.8% | 104% | 95.6% | 105% | 97% | 103% | 94.7% | 105% | 102% | 95.9% | 77.9% | 106% | 103% | 88.5% | 93.3% | 90.9%
9 | COc1cc(OC)c(C(=O)CCCN2CCCC2)c(OC)c1 [buflomedil] | > 10 µM | > 10 µM | > 10 µM | > 10 µM | > 10 µM | 0 | 0 | 0 | 0 | 0 | 87.5% | 86.3% | 90.2% | 88.6% | 101% | 90.5% | 97.2% | 97.3% | 94.4% | 99% | 104% | 99.3% | 102% | 98.8% | 108% | 95.7% | 99% | 94.1% | 97.5% | 108% | 101% | 103% | 96.2% | 96% | 106%
10 | CCOc1ccccc1C(N)=O [ethenzamide] | > 10 µM | > 10 µM | > 10 µM | > 10 µM | > 10 µM | 0 | 0 | 0 | 0 | 0 | 95.3% | 101% | 99.5% | 98.1% | 103% | 101% | 94.9% | 95.4% | 102% | 91.2% | 106% | 97.9% | 100% | 98.2% | 100% | 104% | 98.1% | 101% | 92.6% | 97.3% | 100% | 97% | 97.6% | 98.9% | 103%
11 | CN1CCN(CCCCN2C(=O)CN(/N=C/c3ccc(-c4ccc(Cl)cc4)o3)C2=O)CC1 [azimilide] | > 10 µM | > 10 µM | > 10 µM | > 10 µM | > 10 µM | 0 | 0.1 | 0 | 0 | 0 | 86.7% | 96.6% | 91% | 106% | 92.1% | 99.8% | 106% | 101% | 103% | 85.3% | 103% | 97.1% | 99.8% | 98.2% | 98.5% | 101% | 98.7% | 100% | 96.9% | 98.1% | 97.4% | 102% | 94.4% | 98.7% | 94.5%
12 | CCN1C[C@H](C)n2c(c(O)c3c(=O)n(Cc4ccc(F)c(Cl)c4)nc(C(=O)NC)c32)C1=O [MK-2048] | > 10 µM | > 10 µM | > 10 µM | > 10 µM | > 10 µM | 0 | 0 | 0 | 0 | 0 | 91.3% | 90.2% | 92.3% | 98.2% | 93.7% | 110% | 106% | 93.9% | 100% | 98.4% | 101% | 96.3% | 102% | 98.5% | 97.8% | 101% | 100% | 105% | 101% | 98% | 97.2% | 96% | 93.2% | 94.7% | 87.4%
13 | CCCn1c(=O)c2[nH]cnc2n(-c2ccc(Cl)cc2)c1=O [arofylline] | > 10 µM | > 10 µM | > 10 µM | > 10 µM | > 10 µM | 0 | 0 | 0 | 0 | 0 | 97.7% | 95.4% | 103% | 96.8% | 92.2% | 104% | 102% | 99.1% | 100% | 101% | 103% | 99.1% | 102% | 96.8% | 98.9% | 108% | 108% | 101% | 98.3% | 96% | 87.3% | 97.6% | 94.4% | 87.9% | 95.5%
14 | OCCC#Cc1nc(-c2ccc(F)cc2)c(-c2ccncc2)n1CCCc1ccccc1 | > 10 µM | > 10 µM | > 10 µM | > 10 µM | > 10 µM | 2.2 | 0 | 1.1 | 0 | 1.2 | 101% | 100% | 83.6% | 90.2% | 79.7% | 90.4% | 99.5% | 105% | 99.6% | 93.9% | 95.9% | 92% | 94.7% | 90.1% | 79.7% | 92.5% | 99.7% | 87% | 85% | 100% | 98.4% | 106% | 91.6% | 91.6% | 78.6%

— the supplement of paper PMC13380429
